Data reported in paper PMC11477717, “Synthesis of Carborane–Thiazole Conjugates as Tyrosinase and 11β-Hydroxysteroid Dehydrogenase Inhibitors: Antiproliferative Activity and Molecular Docking Studies” (Molecules, 2024).
Where two headings read alike, the source gives them in different places.

Tests used:
[1] = tested on: A172 (human brain glioblastoma); assay: MTT antiproliferative assay, A172; type: cell-based; details: for IC50: MTT, 72 h, A172 cells, read-out: IC50 ± SD A172; for SI HUVEC/A172: selectivity index = IC50 normal cell line / IC50 cancer cell line
Protocol: (§1) All cell lines were obtained from ATCC, and all chemicals were purchased from Sigma-Aldrich, St. Louis, MO, USA. […] All media were supplemented with antibiotic and antimycotic solutions, according to the manufacturers’ instructions. MTT cytotoxicity assessments were performed as described previously. […] The cells counted using an automated cell counter (Countess® II FL, Invitrogen by Thermo Fisher Scientific Inc., Waltham, MA, USA) were plated in 96-well plates (Nunc Edge 2F, Thermo Fisher Scientific Inc.) at a density of 0.1 × 10^4 per well. After an additional 72 h, cells underwent an MTT cytotoxicity assay (see below). The IC50 values were calculated using ED50plus v 1.0 freeware software (Instituto Nacional de Enfermedades Respiratorias, Mexico City, Mexico). Each cell line was tested in three independent replicates.
(§2) After the incubation time was complete, the medium was removed and crystals of formazan were solubilized in pure isopropanol. The absorbance readout was conducted immediately using a plate reader, Multiskan Spectrum, at 570 nm (Thermo Fisher Scientific Inc., Waltham, MA, USA). The background optical density was measured in the wells filled with the culture medium, without any cells.

11β-HSD1 = molecular target: T1, 11β-HSD1 (Homo sapiens, UniProt P28845); assay: Inhibition of 11β-HSD1 assay (cortisone to cortisol, microsomes, cortisol ELISA); type: biochemical; details: for % of 11β-HSD1 Inhibition 10 μM: inhibitor 10 µM, 150 min, 37 °C
T1 construct: tissue XenoTech Lot No. 1410013; host or cells: pooled human liver microsomes
Protocol: L160706125, was obtained from Cloud-Clone Corp. PBS, Lot No. H161008, was obtained from Pan Biotech. […] L191113457, was obtained from Cloud-Clone Corp. […] The microplates were incubated on an orbital shaker for 150 min at 37 °C. […] The quantity of cortisol formed from cortisone was determined using a cortisol ELISA kit, […].

[2] = tested on: HUVEC (human umbilical vein endothelial cells); assay: MTT antiproliferative assay, HUVEC healthy control; type: cell-based; details: 72 h, HUVEC normal cells, read-out: IC50 ± SD HUVEC
Protocol: All cell lines were obtained from ATCC, and all chemicals were purchased from Sigma-Aldrich, St. Louis, MO, USA. Briefly, cells were cultivated in a controlled atmosphere using DMEM medium with fetal bovine serum (FBS) at a final concentration of 10% (A-172), an L15 medium with 15% FBS, cultivated without CO2 (MDA-MB-231), F12K with a heparin final concentration of 0.1 mg/mL, endothelial cell growth supplement with a final concentration of 0.03 mg/mL (HUVEC), and RPMI with 5% FBS. All media were supplemented with antibiotic and antimycotic solutions, according to the manufacturers’ instructions. MTT cytotoxicity assessments were performed as described previously. Briefly, cell lines A172, B16F10, MDA-MB-231, and HUVEC were seeded 24 h prior to the addition of the tested compounds. The cells counted using an automated cell counter (Countess® II FL, Invitrogen by Thermo Fisher Scientific Inc., Waltham, MA, USA) were plated in 96-well plates (Nunc Edge 2F, Thermo Fisher Scientific Inc.) at a density of 0.1 × 10^4 per well. After an additional 72 h, cells underwent an MTT cytotoxicity assay (see below). The IC50 values were calculated using ED50plus v 1.0 freeware software (Instituto Nacional de Enfermedades Respiratorias, Mexico City, Mexico). Each cell line was tested in three independent replicates.
as §2, with “Twenty microliters of an MTT solution (MTT: 3-(4,5-dimethylthiazol-2-yl)-2,5-diphenyl tetrazolium bromide, stock solution: 5 mg/mL) was added to each cell line for 2 h (A172, B16F10, MDA-MB-231, and HUVEC). After” for “After”

[3] = tested on: MDA-MB-231 (human breast adenocarcinoma); assay: MTT antiproliferative assay, MDA-MB-231; type: cell-based; details: for IC50: MTT, 72 h, MDA-MB-231 cells, read-out: IC50 ± SD MDA-MB-231; for SI HUVEC/ MDA-MB-231: selectivity index = IC50 normal cell line / IC50 cancer cell line
Protocol: as §1, §2

mushroom tyrosinase [4] = molecular target: T2, mushroom tyrosinase (Agaricus bisporus, UniProt C7FF04); assay: Mushroom tyrosinase inhibition assay (L-DOPA, dopachrome 475 nm); type: biochemical
T2 construct: purchased Sigma-Aldrich
Protocol: The mushroom tyrosinase (Sigma-Aldrich) inhibition was performed following previously reported methods. […] The inhibitor solutions were prepared in DMSO with an initial concentration of 1 mM. Different aliquots were added to the solution containing the buffer, L-DOPA, and EDTA, with the enzyme being added last. […] Ascorbic acid was used as a reference inhibitor with an initial concentration of 1 mM. The IC50 values were calculated from the equation generated via exponential fit of the experimental data.

mushroom tyrosinase [5] = molecular target: T2, mushroom tyrosinase; assay: Kinetic analysis of the inhibition of tyrosinase (Lineweaver-Burk); type: biochemical; details: compound at 0.05 mM; for Mechanism of Inhibition: Lineweaver-Burk plots; for Vmax: L-DOPA 100-250 µM
Protocol: A series of experiments were performed to determine the inhibition kinetics of compounds by following the already reported method. The inhibitor concentrations for compounds were 50 and 100 µM. The substrate L-DOPA concentration was between 100 and 250 µM in all kinetic studies. Maximal initial velocity was determined from the initial linear portion of absorbance up to ten minutes after the addition of the enzyme. The inhibition type of the enzyme, Michaelis constant (KM), and maximal velocity (Vmax) were determined by Lineweaver–Burk plots of the inverse of velocities (1/V) versus the inverse of substrate concentration 1/[L-DOPA] mM^−1.

B16F10 (murine melanoma) = assay: MTT antiproliferative assay, B16F10; type: cell-based; details: for IC50: MTT, 72 h, B16F10 cells, read-out: IC50 ± SD B16F10; for SI HUVEC/ B16F10: selectivity index = IC50 normal cell line / IC50 cancer cell line
Protocol: as §1, §2

11β-HSD2 = molecular target: T3, 11β-HSD2 (Homo sapiens, UniProt P80365); assay: Inhibition of 11β-HSD2 assay (cortisol to cortisone, microsomes, cortisol ELISA); type: biochemical; details: inhibitor 10 µM, 150 min, 37 °C
T3 construct: Human kidney microsomes, mixed gender, 0.5 mL, 10 mg/mL, Lot No. 1710160, were obtained from XenoTech; tissue XenoTech Lot No. 1710160; host or cells: human kidney microsomes
T3 sequence (P80365 1-405): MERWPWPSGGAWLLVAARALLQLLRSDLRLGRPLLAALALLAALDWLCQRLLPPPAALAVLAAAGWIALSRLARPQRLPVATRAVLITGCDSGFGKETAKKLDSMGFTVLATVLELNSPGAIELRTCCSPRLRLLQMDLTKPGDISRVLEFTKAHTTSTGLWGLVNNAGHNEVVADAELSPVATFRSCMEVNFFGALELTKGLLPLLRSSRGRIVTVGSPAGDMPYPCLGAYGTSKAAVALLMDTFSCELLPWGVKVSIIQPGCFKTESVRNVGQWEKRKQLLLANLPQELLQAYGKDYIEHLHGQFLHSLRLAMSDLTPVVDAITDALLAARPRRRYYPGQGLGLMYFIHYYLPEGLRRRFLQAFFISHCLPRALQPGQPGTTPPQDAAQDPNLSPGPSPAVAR
Protocol: The Enzyme-Linked Immunosorbent Assay (ELISA) Kit for 11-Beta-Hydroxysteroid Dehydrogenase Type 1, Lot No. L160706125, was obtained from Cloud-Clone Corp. PBS, Lot No. H161008, was obtained from Pan Biotech. […] The Enzyme-Linked Immunosorbent Assay (ELISA) Kit for 11-Beta-Hydroxysteroid Dehydrogenase Type 2, Lot No. L191113457, was obtained from Cloud-Clone Corp.
The oxidation reaction of cortisol to cortisone was carried out on 96-well microtiter plates in the presence of the enzyme 11β-HSD2 in a total volume of 100 µL. To this end, 60 µL of phosphate buffer (pH 7.4), 10 µL of a microsomes(0.12 µg/mL […]) solution in PBS (final quantity 2.5 µg), 20 µL of substrate mixture cortisol/NAD (final concentration 200 nM/2 mM), and 10 µL of the appropriate inhibitor solution (solvent DMSO/water 1/99, final concentration 10 µM) were placed in each well. The microplates were incubated on an orbital shaker for 150 min at 37 °C. […] The quantity of unreacted cortisol was determined using a cortisol ELISA kit DiaMetra.

[6] = 5 inhibitor concentrations, three independent determinations, read-out: IC50 ± SD 11β-HSD1
[7] = values in SAR summary, unit inferred, read-out: IC50 11β-HSD1 (unit inferred)
[8] = L-DOPA 0.17 mM, pH 6.8, room temperature, read-out: IC50 ± SD mushroom tyrosinase
[9] = rounded values in SAR summary, unit mM, read-out: IC50 tyrosinase inhibition

T1 sequence (P28845 whole entry): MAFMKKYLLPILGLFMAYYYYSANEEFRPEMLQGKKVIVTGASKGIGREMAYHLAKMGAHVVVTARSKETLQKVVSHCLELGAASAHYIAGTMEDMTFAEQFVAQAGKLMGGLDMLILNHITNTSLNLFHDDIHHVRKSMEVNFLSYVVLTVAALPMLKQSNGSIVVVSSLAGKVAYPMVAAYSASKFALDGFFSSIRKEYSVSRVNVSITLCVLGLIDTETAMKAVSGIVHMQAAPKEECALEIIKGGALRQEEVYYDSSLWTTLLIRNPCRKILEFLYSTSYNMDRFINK
T2 sequence (C7FF04 1-392 limits assumed): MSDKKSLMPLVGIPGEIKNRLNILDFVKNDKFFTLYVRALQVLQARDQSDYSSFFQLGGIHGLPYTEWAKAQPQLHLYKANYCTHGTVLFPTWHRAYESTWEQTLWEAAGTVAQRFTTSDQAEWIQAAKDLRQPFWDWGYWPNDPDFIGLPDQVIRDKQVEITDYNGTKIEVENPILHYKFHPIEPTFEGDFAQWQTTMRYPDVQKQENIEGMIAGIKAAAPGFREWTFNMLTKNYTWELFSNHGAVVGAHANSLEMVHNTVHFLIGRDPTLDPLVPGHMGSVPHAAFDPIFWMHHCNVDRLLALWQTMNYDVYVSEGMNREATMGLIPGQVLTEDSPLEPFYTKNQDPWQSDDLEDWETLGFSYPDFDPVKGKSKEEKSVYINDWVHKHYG

Substance | IC50 [1] | IC50 (11β-HSD1; [6]) | % of 11β-HSD1 Inhibition 10 μM (11β-HSD1) | IC50 (11β-HSD1; [7]) | IC50 [3] | IC50 (mushroom tyrosinase [4]; [8]) | Mechanism of Inhibition (mushroom tyrosinase [5]) | Vmax (mushroom tyrosinase [5]) | IC50 (B16F10 (murine melanoma)) | % of 11β-HSD2 Inhibition 10 μM (11β-HSD2) | SI HUVEC/A172 [1] | IC50 [2] | SI HUVEC/ MDA-MB-231 [3] | IC50 (mushroom tyrosinase [4]; [9]) | SI HUVEC/ B16F10 (B16F10 (murine melanoma))
2-(2-(1,2-Dicarba-closo-Dodecaboranylmethylene)Hydrazinyl)-4-p-Tolylthiazole [4d] | 7.88 ± 0.98 µM | 9.05 ± 0.25 µM | 55.78% | – | 6.85 ± 0.86 µM | 0.121 ± 0.0219 mM | Mixed | 0.3820 mM/min | > 10 µM | 27.83% | 1.06 | 8.32 ± 0.09 µM | 1.21 | 0.121 mM | –
4-(4-Bromophenyl)-2-(2-(1,2-Dicarba-closo-Dodecaboranylmethylene)Hydrazinyl)Thiazole [4b] | 6.15 ± 0.26 µM | 6.9 ± 1.2 µM | 64.44% | – | 6.56 ± 0.12 µM | 0.145 ± 0.0144 mM | Activator | 0.0912 mM/min | 5.37 ± 0.11 µM | 27.36% | 1.21 | 7.46 ± 0.13 µM | 1.14 | – | 1.39
4-(4-Chlorophenyl)-2-(2-(1,2-Dicarba-closo-Dodecaboranylmethylene)Hydrazinyl)Thiazole [4a] | 5.77 ± 0.96 µM | 7.03 ± 0.53 µM | 60.07% | – | 6.54 ± 0.52 µM | 0.13 ± 0.0209 mM | Mixed | 0.1656 mM/min | 5.03 ± 0.69 µM | 25.47% | 1.19 | 6.87 ± 0.33 µM | 1.05 | – | 1.37

Continued, in another order:

IC50 [1] | IC50 (11β-HSD1; [6]) | % of 11β-HSD1 Inhibition 10 μM (11β-HSD1) | IC50 (11β-HSD1; [7]) | IC50 [3] | IC50 (mushroom tyrosinase [4]; [8]) | Mechanism of Inhibition (mushroom tyrosinase [5]) | Vmax (mushroom tyrosinase [5]) | IC50 (B16F10 (murine melanoma)) | % of 11β-HSD2 Inhibition 10 μM (11β-HSD2) | Substance | SI HUVEC/A172 [1] | IC50 [2] | SI HUVEC/ MDA-MB-231 [3] | IC50 (mushroom tyrosinase [4]; [9]) | SI HUVEC/ B16F10 (B16F10 (murine melanoma))
6.44 ± 0.6 µM | 7.9 ± 1.4 µM | 62.17% | 7.9 to 8.1 µM | 6.99 ± 2.27 µM | 0.142 ± 0.013 mM | Activator | 0.1575 mM/min | 5.58 ± 0.35 µM | 19.34% | 2-(2-(1,2-Dicarba-closo-Dodecaboranylmethylene)Hydrazinyl)-4-(3,4-Dichlorophenyl)Thiazole [4e] | 1.22 | 7.86 ± 0.61 µM | 1.12 | 0.142 mM | 1.41
7.1 ± 1.9 µM | 8.1 ± 2 µM | 55.74% | 7.9 to 8.1 µM | 6.02 ± 0.08 µM | 0.143 ± 0.00938 mM | Activator | 0.0810 mM/min | 5.57 ± 0.39 µM | 21.70% | 2-(2-(1,2-Dicarba-closo-Dodecaboranylmethylene)Hydrazinyl)-4-(4-Fluorphenyl)Thiazole [4c] | 1.06 | 7.51 ± 0.64 µM | 1.25 | – | 1.35
> 10 µM | 9.35 ± 1.85 µM | 55.54% | – | 7.32 ± 1.26 µM | 0.0494 ± 0.00801 mM | tyrosinase activator | 0.1472 mM/min | 5.81 ± 0.82 µM | 29.25% | 2-(2-(1,2-Dicarba-closo-Dodecaboranylmethylene)Hydrazinyl)-4-(4-Methoxyphenyl)Thiazole [4f] | – | > 10 µM | >1.37 | – | >1.72
6.07 ± 1.06 µM | 7.05 ± 0.25 µM | 73.51% | – | 6.96 ± 0.74 µM | 0.105 ± 0.00908 mM | Uncompetitive | 0.0521 mM/min | 5.11 µM | 32.55% | 2-(2-(1,2-Dicarba-closo-Dodecaboranylmethylene)Hydrazinyl)-4-(4-Nitrophenyl)Thiazole [4g] | >1.65 | > 10 µM | >1.44 | – | >1.96
